We go through six compounds from ChEMBL document CHEMBL6078709, “Discovery of Cyclic Lipopeptides, Octaminomycins C and D, by Engineering LysR Transcriptional Regulator of Streptomyces sp” (J Nat Prod, 2024).

The term IC50 denotes the concentration that inhibits the measured activity by half.

Positions of bridges follow the written chain, without caps; N, C: chain ends. Non-standard residues stand in square brackets, D forms with d. Residues, ends and D or L forms follow the SMILES beside them. *: point of attachment. NMeY = CN[C@@H](Cc1ccc(O)cc1)C(=O)O; Propionyl = CCC(=O)*

Format in all cases: functional, cell-based
Assay [1] concerns HCT-116. The experiment in a line: Antiproliferative activity against human HCT-116 cells assessed as inhibition of cell growth incubated for 72 hrs by sulforhodamine B assay. The conditions noted are these: HCT-116, 72 h. In general terms: The SRB assay estimates cell density from bound dye.
In assay [2] the test system is SNU-638. The experiment in a line: Antiproliferative activity against human SNU-638 cells assessed as inhibition of cell growth incubated for 72 hrs by sulforhodamine B assay. Particulars: SNU-638, 72 h.
Assay [3] deals with MDA-MB-231. The experiment in a line: Antiproliferative activity against human MDA-MB-231 cells assessed as inhibition of cell growth incubated for 72 hrs by sulforhodamine B assay. Particulars: MDA-MB-231, 72 h.
The test system of assay [4] is HUVEC. In words: Antiangiogenic activity in human HUVEC cells assessed as inhibition of VEGF-induced tube formation incubated for 6 hrs by matrigel based inverted microscopic analysis.
The test system of assay [5] is A549. In words: Antiproliferative activity against human A549 cells assessed as inhibition of cell growth incubated for 72 hrs by sulforhodamine B assay. Particulars: A549, 72 h.
Assay [6] concerns SK-HEP1. The experiment in a line: Antiproliferative activity against human SK-HEP1 cells assessed as inhibition of cell growth incubated for 72 hrs by sulforhodamine B assay. Particulars: SK-HEP1, 72 h.

Regarding `CCC(=O)N[C@@H]1C(=O)N[C@@H](Cc2ccccc2)C(=O)N[C@H](CC(C)C)C(=O)N[C@@H](C(C)C)C(=O)N2CCC[C@H]2C(=O)N[C@@H](CC(C)C)C(=O)N(C)[C@@H](Cc2ccccc2)C(=O)N2CCC[C@H]2C(=O)O[C@@H]1C`, the concentration for half-maximal inhibition (IC50) in assay [1] was more than 20 µM; in assay [2] it was more than 20 µM; in assay [3], 12 µM; in assay [4], more than 40 µM; in assay [5] it was 12.3 µM; in assay [6], 13.1 µM.

On to `CCN(CC)CCNC(=O)c1c(C)[nH]c(/C=C2\C(=O)Nc3ccc(F)cc32)c1C` [SUNITINIB], for which the IC50 in assay [4] turned out to be 3.5 µM.

`CC(=O)N[C@@H]1C(=O)N[C@@H](Cc2ccccc2)C(=O)N[C@H](CC(C)C)C(=O)N[C@@H](C(C)C)C(=O)N2CCC[C@H]2C(=O)N[C@@H](CC(C)C)C(=O)N(C)[C@@H](Cc2ccc(O)cc2)C(=O)N2CCC[C@H]2C(=O)O[C@@H]1C` (Ac-TF[dL]VPL[NMeY]P; ester 1-C): the IC50 was more than 20 µM in assay [1]; 16.8 µM in assay [2]; more than 20 µM in assay [3]; 28 µM in assay [4]; more than 20 µM in assay [5]; 19 µM in assay [6].

With `CCC(=O)N[C@@H]1C(=O)N[C@@H](Cc2ccccc2)C(=O)N[C@H](CC(C)C)C(=O)N[C@@H](C(C)C)C(=O)N2CCC[C@H]2C(=O)N[C@@H](CC(C)C)C(=O)N(C)[C@@H](Cc2ccc(O)cc2)C(=O)N2CCCC[C@H]2C(=O)O[C@@H]1C`, the half-maximal inhibitory concentration (IC50) in assay [1] is more than 20 µM; in assay [2], 17.2 µM; in assay [3] it was more than 20 µM; in assay [4] it was more than 40 µM; in assay [5], 15.5 µM; in assay [6], 17.4 µM.

With `COc1cc([C@@H]2c3cc4c(cc3[C@@H](O[C@@H]3O[C@@H]5CO[C@@H](C)O[C@H]5[C@H](O)[C@H]3O)[C@H]3COC(=O)[C@H]23)OCO4)cc(OC)c1O` [ETOPOSIDE], the 50% inhibitory concentration (IC50) was 3.16 µM in assay [1]; 1.96 µM in assay [2]; 2.43 µM in assay [3]; 2.73 µM in assay [5]; 3.78 µM in assay [6].

As for `CCC(=O)N[C@@H]1C(=O)N[C@@H](Cc2ccccc2)C(=O)N[C@H](CC(C)C)C(=O)N[C@@H](C(C)C)C(=O)N2CCC[C@H]2C(=O)N[C@@H](CC(C)C)C(=O)N(C)[C@@H](Cc2ccc(O)cc2)C(=O)N2CCC[C@H]2C(=O)O[C@@H]1C` (Propionyl-TF[dL]VPL[NMeY]P; ester 1-C), the IC50 was more than 20 µM in assay [1]; more than 20 µM in assay [2]; more than 20 µM in assay [3]; more than 40 µM in assay [4]; more than 20 µM in assay [5]; more than 20 µM in assay [6].
